What was measured:
[1] = biological target: T1, mouse VEGFR-I-AP (Mus musculus, UniProt P35969); assay: Plate-bound receptor binding ELISA (Example 2B); details: FIG. 32B, 100 ng/well
T1 sequence (P35969 23-759 limits assumed): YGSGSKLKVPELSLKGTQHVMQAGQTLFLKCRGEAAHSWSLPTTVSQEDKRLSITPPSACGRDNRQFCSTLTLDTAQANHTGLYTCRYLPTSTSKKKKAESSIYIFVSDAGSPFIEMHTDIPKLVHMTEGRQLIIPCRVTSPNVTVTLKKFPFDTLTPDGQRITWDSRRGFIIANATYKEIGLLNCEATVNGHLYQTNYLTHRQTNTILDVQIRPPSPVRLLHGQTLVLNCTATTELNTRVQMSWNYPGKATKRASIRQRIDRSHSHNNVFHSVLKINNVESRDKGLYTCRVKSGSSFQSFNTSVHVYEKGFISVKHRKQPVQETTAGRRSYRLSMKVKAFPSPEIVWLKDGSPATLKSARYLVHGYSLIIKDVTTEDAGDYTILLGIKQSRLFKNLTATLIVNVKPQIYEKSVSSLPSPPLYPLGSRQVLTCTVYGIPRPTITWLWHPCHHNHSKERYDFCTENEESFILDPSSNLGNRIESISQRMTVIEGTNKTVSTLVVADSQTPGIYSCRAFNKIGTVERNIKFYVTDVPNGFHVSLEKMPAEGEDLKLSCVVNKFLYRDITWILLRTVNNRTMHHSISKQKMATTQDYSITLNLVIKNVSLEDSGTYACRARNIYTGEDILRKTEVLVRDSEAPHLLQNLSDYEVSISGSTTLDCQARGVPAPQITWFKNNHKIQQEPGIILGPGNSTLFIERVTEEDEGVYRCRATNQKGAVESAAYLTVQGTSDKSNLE
Protocol: HuVEGFR-I-Fc, mouse VEGFR-I-AP (hnClone Systems) or huVEGFR-2-AP (ImClone Systems) (100 ng/well) was coated on 96 strip-well plates and blocked with 5% milk/PBS. The binding of 18F1 and other anti-human VEGFR-I antibodies or a rat anti-mouse VEGFR-I antibody, MF1 (ImClone Systems, ref. 18), to plate bound VEGFR-I or VEGFR-2 was evaluated as described for the hybridoma supernatant screening above, except that bound antibody was detected with a goat anti-human kappa-HRP antibody (Bio Source International, Camarillo, Calif.) for 18F1 and anti-human VEGFR-2 antibody ICl 1. or a goat anti-rat IgG-HRP antibody (BioSource International) for MF1.

[2] = biological target: T2, native VEGFR-I on PAE-VEGFR-I cells (Homo sapiens, UniProt P17948); assay: Flow cytometry analysis, PAE-VEGFR-I cells; type: binding; details: FIG. 7
T2 construct: host or cells: porcine aorta endothelial (PAE) cells
T2 sequence (P17948 27-1338): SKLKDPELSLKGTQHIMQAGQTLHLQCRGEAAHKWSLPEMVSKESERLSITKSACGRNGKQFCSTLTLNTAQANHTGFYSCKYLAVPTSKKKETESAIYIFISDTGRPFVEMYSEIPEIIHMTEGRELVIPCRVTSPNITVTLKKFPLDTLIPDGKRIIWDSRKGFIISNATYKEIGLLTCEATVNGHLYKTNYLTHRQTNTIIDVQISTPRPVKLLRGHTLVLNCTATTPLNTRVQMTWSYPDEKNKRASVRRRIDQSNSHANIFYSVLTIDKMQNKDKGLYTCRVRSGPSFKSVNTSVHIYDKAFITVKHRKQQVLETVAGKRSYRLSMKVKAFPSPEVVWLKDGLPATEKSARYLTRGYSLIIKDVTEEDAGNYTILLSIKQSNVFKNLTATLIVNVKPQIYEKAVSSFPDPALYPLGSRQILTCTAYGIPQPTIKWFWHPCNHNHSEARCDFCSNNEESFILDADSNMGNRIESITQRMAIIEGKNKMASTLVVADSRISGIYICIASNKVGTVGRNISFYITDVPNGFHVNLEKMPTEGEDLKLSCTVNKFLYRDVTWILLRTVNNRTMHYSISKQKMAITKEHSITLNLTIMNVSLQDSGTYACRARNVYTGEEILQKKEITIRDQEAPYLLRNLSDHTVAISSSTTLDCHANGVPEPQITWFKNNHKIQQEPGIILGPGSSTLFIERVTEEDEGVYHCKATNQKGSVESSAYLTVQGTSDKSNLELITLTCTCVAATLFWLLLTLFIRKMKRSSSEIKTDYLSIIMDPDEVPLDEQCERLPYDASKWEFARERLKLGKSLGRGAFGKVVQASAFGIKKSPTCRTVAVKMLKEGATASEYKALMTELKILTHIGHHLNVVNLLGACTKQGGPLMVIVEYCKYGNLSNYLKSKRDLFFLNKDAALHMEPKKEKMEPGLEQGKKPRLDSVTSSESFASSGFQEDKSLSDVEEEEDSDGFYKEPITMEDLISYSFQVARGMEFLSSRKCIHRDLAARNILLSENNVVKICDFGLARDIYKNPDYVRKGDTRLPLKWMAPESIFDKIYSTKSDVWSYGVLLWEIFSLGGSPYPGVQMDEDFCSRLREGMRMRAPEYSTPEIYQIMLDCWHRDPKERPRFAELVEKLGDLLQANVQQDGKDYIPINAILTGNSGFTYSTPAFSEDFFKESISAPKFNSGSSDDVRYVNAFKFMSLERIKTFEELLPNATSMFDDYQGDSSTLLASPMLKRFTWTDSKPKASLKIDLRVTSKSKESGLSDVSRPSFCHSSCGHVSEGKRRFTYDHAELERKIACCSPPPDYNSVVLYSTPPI
Protocol: Aliquots of 10^6PAE-VEGFR-I cells were harvested from subconfluent cultures and incubated with anti-VEGFR-I antibody clones 6F9, 13G12, F11, and 18F1 in PBS with 1% bovine serum albumin (BSA) and 0.02% sodium azide (staining buffer) for one hour on ice. Aliquots of 10^6DU4475 human breast carcinoma cells were harvested from subconfluent cultures and incubated with anti-VEGFR-1 antibody clone 18F1 in PBS with 1% bovine serum albumin (BSA) and 0.02% sodium azide (staining buffer) for one hour on ice. A matched IgG isotype (Jackson ImmunoResearch, West Grove, Pa.) was used as a negative control. Cells were washed twice with flow buffer and then incubated with a fluorescein isothiocyanate (FITC)-labeled goat anti-human IgG antibody (BioSource International, Camarillo, Calif.) in staining buffer for 30 minutes on ice. Cells were washed as above and analyzed on an Epics XL flow cytometer (Beckman-Coulter, Hialeah, Fla.). Dead cells and debris were eliminated from the analysis on the basis of forward and sideways light scatter. The mean fluorescent intensity units (MFRJ) were calculated as the mean log fluorescence multiplied by the percentage of positive population.

[3] = tested on: DU4475 carcinoma cells; assay: Cell growth assay (Example 5); type: cell-based, human; details: 3, 10, 30 μg/ml antibody, 50 ng/ml VEGF or 200 ng/ml PlGF, 48 hours
Protocol: DU4475 carcinoma cells were seeded at a density of 5×10^3/well into 96-well plates in serum-free conditions for 18 hours, and in some case followed by treatment with 100 nM of desferoxamine for additional 5 hours. Inhibitory effect of anti-VEGFR-I antibody on tumor cell growth was determined by incubation of cells with anti-VEGFR-I antibody clones 6F9, 13G12, 15F1 1, and 18F1 at doses of 3, 10, and 30 μg/ml in the presence of 50 ng/ml of VEGF or 200 ng/ml of PlGF for 48 hours. Viable cells were then counted in triplicate using a Coulter cytometer (Coulter Electronics Ltd. Luton, Beds, England). Each experiment was done in triplicate.

[4] = tested on: HT-29 human colon carcinoma cells; assay: Soft agarose colony formation; type: cell-based; details: 66 nM antibody, 10 ng/mL VEGF-A or 50 ng/mL VEGF-B, 14 days, p<0.03
Protocol: One mL DMEM medium containing 10% FBS and 1% agarose (Cambrex Corporation, East Rutherford, N.J.) was plated in each well of six well plates. HT-29 human colon carcinoma cells in serum free medium were treated with 66 nM 18F1 or control IgG for 1 hour and followed by treatment with 10 ng/mL VEGF-A or 50 ng/mL VEGF-B for additional 4 hours. The treated cells were mixed with 1 mL 10% FBS DMEM containing 0.5% agarose and the appropriate antibodies and/or ligands. One mL of this suspension, containing 250 cells, was plated in each well on top of the 1% agarose base layer. After 2 days, additional medium containing antibodies and/or ligands was added to the wells to keep the agarose hydrated. Cells were allowed to grow for 14 days at 37° C. Afterwards, colonies larger than 50 μm in diameter were counted using a dissecting microscope. Statistical analysis was performed using hiStat Statistical Software (V2.03, GraphPad Software, San Diego, Calif.)

[5] = tested on: SW480 cells; assay: Invasion through MATRIGEL coated membrane; type: cell-based, human; details: 66 nM antibody, 10 ng/mL VEGF-A or 50 ng/mL VEGF-B, 48 hours, p<0.05, FIG. 24
Protocol: HT-29 cells (2.5×1 10^4) or SW480 cells (1.5×1 10^4) were incubated in medium containing 1% FBS with the anti-VEGFR-1 antibody 18F1 ([…]) 8.0-μm pore size membrane insert (Becton Dickinson Labware, Bedford, Mass.). The inserts were placed into lower chambers containing 10 ng/mL VEGF-A (R&D Systems) or 50 ng/mL VEGF-B (R&D Systems) for 48 hours. Cells remaining in the top chamber of the inserts were removed with a cotton swab. Cells migrating to the underside of the inserts were stained with Diff-Quik (Harleco, Gibbstown, N.J.) and counted in ten random fields at 100× magnification. Statistical analysis was performed using InStat Statistical Software (V2.03, GraphPad Software, San Diego, Calif.).

18F1: human anti-VEGFR-1 monoclonal antibody clone; VL SEQ ID NO: 16, VH SEQ ID NO: 20 [Clone 18F1]
reactivity with mouse VEGFR-I [1]: no cross reactivity
binding reactivity with PAE-VEGFR-I expressing cells [2]: binding reactivity
VEGF and PlGF stimulated proliferation of DU4475 breast carcinoma cells [3]: inhibition
VEGF-A or VEGF-B induced colony formation [4]: completely suppressed
VEGFR-I ligand induced invasion [5]: completely blocked
